According to patent US8871741B2, “Inhibition of TNF-α induced activation of NFKB by pentosan polysulfate” (Icahn School of Medicine at Mount Sinai, priority 2010, dated 2014):
Like-named read-outs stand apart in the source and are kept apart here.

Columns and labels:
proximal tubular cells = settings: for cell death: wild type proximal tubular cells, 24 hours
Description: To determine if CHOP played a role in ER stress induced renal cell death, primary proximal tubular cells were isolated from 2 month-old CHOP^−/− and wild type mice using a method described by Sheridan et al. (Am J Physiol 1993, 265:F342-350). Briefly, kidneys were perfused with a phosphate buffer solution and dynabead M-450 (5×10^5 beads/ml, Invitrogen, LA, CA). Cortices were then cut to small pieces and incubated with 0.1% collagenase and 100 u/ml DNase at 37° C. for 40 minutes. After pressing tissues through a 100 μm cell strainer (BD Biosciences, Bedford, Mass.) with a syringe plunger, glomeruli were removed by a magnetic concentrator. The remaining tissues were collected with a 40 μm cell strainer, washed and cultured with medium containing DMEM/F12 (1:1), 5 μg/ml transferrin, 5 μg/ml insulin, 50 nM hydrocortisone, 5% FBS, 100 u/ml each of penicillin and streptomycin. […] […] 24 hours later, cells were gently washed and stained with trypan blue, the number of live cells from each well was counted.

[1] = test system: MCP-1, RANTES, CXCL1, MIP-2, ICAM-1, and iNOS mRNA; experiment: TNFα induced pro-inflammatory gene expression in proximal tubular cell line, real-time PCR; assay type: cell-based, mouse; settings: TNFα 10 ng/ml, 4 hours, control defined as 1
Description: A proximal tubular cell line obtained from mice transgenic for SV40 T antigen was grown in DMEM containing 10% FBS. For the measurement of TNFα-stimulated gene expression, 1×10^5 proximal tubular cells were transferred to each well of a 6-well-plate. After placing the cells in 0.1% FBS medium for 24 hours, 10 ng/ml of TNFα was added to test wells. Total RNA was isolated from all wells 4 hours later. MCP-1, RANTES, CXCL1, MIP-2, ICAM-1, and iNOS mRNA levels were determined by real-time PCR as described above and corrected by β-actin mRNA levels. TNFα stimulated MCP-1 and RANTES production and release into the medium was measured in TNFα (10 ng/ml) treated and control cells at 24 hours. The amount of MCP-1 or RANTES in the medium was measured by ELISA (Invitrogen Corporation (Carlsband, Calif.).
To determine the effect of PPS on TNFα induced upregulation of proinflammatory genes, proximal tubular cells were pre-treated with PPS (200 μg/ml) for 1 hour before the addition of TNFα (10 ng/ml). MCP-1, RANTES, CXCL1, MIP-2, ICAM-1, and iNOS mRNA levels were determined 4 hours later by real-time PCR. MCP-1 and RANTES production was also measured.

podocytes = experiment: Albumin permeability of podocyte monolayers (FITC-labeled BSA flux); assay type: cell-based; settings: 2 hours after TNFα treatment (20 ng/ml)
Description: 1×10^5 podocytes were seeded onto collagen-coated transwell filters ([…] pore-size, Corning, N.Y., N.Y.) placed in the top chamber of each well of a 24-well plate. After cells reached confluence, some wells of cells were treated with TNFα (20 ng/ml), PPS (400 μg/ml), or PPS plus TNFα in 2% FBS medium for 8 hours. Then the medium from both the top and bottom chamber was completely removed, cells were washed twice with PBS and the top chamber was refilled with 0.2 ml 2% FBS medium supplemented with 0.5 mg/ml FITC-labeled BSA (Sigma Aldrich, St Louis, […].), while the bottom chamber was refilled with 0.6 ml 2% FBS medium supplemented with 0.5 mg/ml unlabeled BSA. At different time points, 100 μl aliquots were collected from the bottom chamber and fluorescence was measured by a fluorescence spectrophotometer (485 nm excitation, 535 nm emission). The concentration of FITC-BSA passing through the monolayer was determined by reference to a set of standard dilutions of FITC-BSA. The value of albumin flux through untreated monolayer was arbitrarily defined as 100%.

MMP-2 = experiment: Zymography of U937 cell supernatants, MMP-2; assay type: cell-based, human; settings: U937 cells, heparin 100 μg/ml
Description: Human pro-monocytic U937 cells were obtained from American Type Culture Collection (Manassas, Va.) and grown in RPMI medium supplemented with 10% FBS. U937 cells were plated in six-well plates at a density of 5×10^6 cells/ml. The cells were then stimulated with 10 ng/ml TNF-α, in the presence or absence of either increasing concentrations of PPS (10-100 μg/ml) or heparin (100 μg/ml), and incubated at 37° C. for 3 hours. Following stimulation, cells were placed in 0.1% BSA-serum-free medium for 16-18 hours. The media was then collected, centrifuged, and supernatants were stored at −80° C. for the assessment of MMP activity. The cell number was determined by direct cell counting.
MMP activity in aortic extracts and conditioned media from monocytes was assessed, as previously described (Jacot T A, et al., Lab Invest. 1996; 75:791-79). Briefly, aortic segments were homogenized and extracted in RIPA buffer (25 mM Tris, pH 7.4, 150 mM KCl, 5 mM EDTA, 1% Nonidet P-40, 0.5% sodium deoxycholate, and 0.1% SDS). Insoluble material was precipitated by centrifugation, and soluble extracts were collected and stored at −20° C. for further analysis. For in vitro experiments, cell supernatants were centrifuged to remove cellular debris, and diluted appropriately to normalize for cell number. Aortic extracts and conditioned media were then mixed with sample buffer (1% SDS, 0.08 M Tris pH 6.8, 4% glycerol, and 0.006% bromophenol blue), and loaded onto a 10% gelatin polyacrylamide gel, and processed as described (Jacot T A, et al., Lab Invest. 1996; 75:791-79). For reverse zymography, samples were loaded onto a 15% gelatin polyacrylamide gel containing 0.5% porcine gelatin and 6 μg recombinant gelatinase A, and processed as described (Elliot S J, et al., J Am Soc Nephrol. 1999; 10: 62-68).

For `OO` [H2O2, hydrogen peroxide], the apoptotic cell death (proximal tubular cells) was “dose dependent increase”.
For TNFα, the “fold increase in mRNA expression of MCP-1, RANTES, CXCL-1, MIP-2, ICAM-1 and iNOS” value [1] was 2-9 fold and the “increase in the amount of FITC-labeled albumin that passed through a monolayer of podocytes” value (podocytes) was 34%.
For heparin, the “effect of heparin treatment on MMP-2 activity compared with the PPS effect” value (MMP-2) was “comparable”.
With tunicamycin the apoptotic cell death (proximal tubular cells; proximal tubular cells exposed to inducers of oxidative stress or ER stress) was “dose dependent increase”, the cell death (proximal tubular cells; 0.6 μg/ml of tunicamycin) was 38% and the cell death (proximal tubular cells; 1.2 μg/ml of tunicamycin) was 89%.
